According to the NIST ThermoML archive (doi:10.1021/je060490w):

Key:
[1] = xn = mol fraction of the nth substance listed; details: Pendant drop shape
[2] = for surface tension liquid-gas: Pendant drop shape; for mass density: 101.33 kPa, Liquid

Cc1ccc(C)c(C)c1 [1,2,4-trimethylbenzene] + CCOC(C)OCC
[1], x2 = 0
Details	surface tension liquid-gas [mN/m]
298.15 K	29.3
308.15 K	28.24
313.15 K	27.71

CCOC(C)OCC [1,1-diethoxyethane] + Cc1cc(C)cc(C)c1
[1]
Details	surface tension liquid-gas [mN/m]
298.15 K, x1 = 0.0491	27.45
298.15 K, x1 = 0.1013	26.91
298.15 K, x1 = 0.1538	26.36
298.15 K, x1 = 0.1996	25.83
298.15 K, x1 = 0.2501	25.34
298.15 K, x1 = 0.3009	24.81
298.15 K, x1 = 0.3501	24.37
298.15 K, x1 = 0.4067	23.83
298.15 K, x1 = 0.4506	23.45
298.15 K, x1 = 0.4997	23.04
298.15 K, x1 = 0.5523	22.62
298.15 K, x1 = 0.601	22.26
298.15 K, x1 = 0.6508	21.92
298.15 K, x1 = 0.7006	21.64
298.15 K, x1 = 0.7507	21.43
298.15 K, x1 = 0.8014	21.2
298.15 K, x1 = 0.851	21.09
298.15 K, x1 = 0.8994	21.02
298.15 K, x1 = 0.9487	20.95
298.15 K, x1 = 1	20.88
308.15 K, x1 = 0.0488	26.55
308.15 K, x1 = 0.1009	25.97
308.15 K, x1 = 0.1495	25.4
308.15 K, x1 = 0.1991	24.86
308.15 K, x1 = 0.2498	24.32
308.15 K, x1 = 0.3014	23.84
308.15 K, x1 = 0.3503	23.35
308.15 K, x1 = 0.4004	22.89
308.15 K, x1 = 0.4508	22.44
308.15 K, x1 = 0.5011	22.03
308.15 K, x1 = 0.5503	21.61
308.15 K, x1 = 0.5979	21.25
308.15 K, x1 = 0.6511	20.9
308.15 K, x1 = 0.6997	20.62
308.15 K, x1 = 0.7503	20.33
308.15 K, x1 = 0.7977	20.15
308.15 K, x1 = 0.8462	20.04
308.15 K, x1 = 0.8993	19.95
308.15 K, x1 = 0.9418	19.93
308.15 K, x1 = 1	19.89
313.15 K, x1 = 0.0487	26.09
313.15 K, x1 = 0.0991	25.49
313.15 K, x1 = 0.1507	24.91
313.15 K, x1 = 0.1999	24.37
313.15 K, x1 = 0.2468	23.86
313.15 K, x1 = 0.3001	23.34
313.15 K, x1 = 0.3501	22.83
313.15 K, x1 = 0.4008	22.38
313.15 K, x1 = 0.4502	21.95
313.15 K, x1 = 0.5	21.54
313.15 K, x1 = 0.5495	21.12
313.15 K, x1 = 0.6005	20.73
313.15 K, x1 = 0.6506	20.4
313.15 K, x1 = 0.7005	20.11
313.15 K, x1 = 0.7514	19.8
313.15 K, x1 = 0.7996	19.63
313.15 K, x1 = 0.8494	19.52
313.15 K, x1 = 0.9003	19.48
313.15 K, x1 = 0.9498	19.44
313.15 K, x1 = 1	19.42

COC(C)(C)OC [3,3-dimethyl-2,4-dioxapentane] + Cc1cc(C)cc(C)c1
[1]
Details	surface tension liquid-gas [mN/m]
298.15 K, x1 = 0.05	27.6
298.15 K, x1 = 0.1002	27.14
298.15 K, x1 = 0.1494	26.72
298.15 K, x1 = 0.2001	26.28
298.15 K, x1 = 0.252	25.88
298.15 K, x1 = 0.3001	25.47
298.15 K, x1 = 0.3496	25.1
298.15 K, x1 = 0.3998	24.7
298.15 K, x1 = 0.4525	24.33
298.15 K, x1 = 0.4998	23.98
298.15 K, x1 = 0.5497	23.62
298.15 K, x1 = 0.5996	23.26
298.15 K, x1 = 0.6506	22.93
298.15 K, x1 = 0.7002	22.64
298.15 K, x1 = 0.7503	22.37
298.15 K, x1 = 0.7993	22.11
298.15 K, x1 = 0.8511	21.89
298.15 K, x1 = 0.8986	21.7
298.15 K, x1 = 0.9494	21.57
298.15 K, x1 = 1	21.46
308.15 K, x1 = 0.0562	26.65
308.15 K, x1 = 0.0995	26.21
308.15 K, x1 = 0.1481	25.77
308.15 K, x1 = 0.2023	25.29
308.15 K, x1 = 0.2502	24.87
308.15 K, x1 = 0.3002	24.49
308.15 K, x1 = 0.3497	24.06
308.15 K, x1 = 0.3982	23.71
308.15 K, x1 = 0.4499	23.31
308.15 K, x1 = 0.4964	22.95
308.15 K, x1 = 0.5493	22.54
308.15 K, x1 = 0.6001	22.17
308.15 K, x1 = 0.6502	21.85
308.15 K, x1 = 0.7006	21.52
308.15 K, x1 = 0.7454	21.27
308.15 K, x1 = 0.7999	20.99
308.15 K, x1 = 0.8492	20.74
308.15 K, x1 = 0.8998	20.57
308.15 K, x1 = 0.9492	20.48
308.15 K, x1 = 1	20.43
313.15 K, x1 = 0.0511	26.21
313.15 K, x1 = 0.1023	25.71
313.15 K, x1 = 0.1503	25.26
313.15 K, x1 = 0.2014	24.79
313.15 K, x1 = 0.2506	24.39
313.15 K, x1 = 0.3013	23.95
313.15 K, x1 = 0.3498	23.56
313.15 K, x1 = 0.396	23.19
313.15 K, x1 = 0.4486	22.77
313.15 K, x1 = 0.5014	22.36
313.15 K, x1 = 0.5508	21.99
313.15 K, x1 = 0.5931	21.68
313.15 K, x1 = 0.6488	21.31
313.15 K, x1 = 0.6988	20.99
313.15 K, x1 = 0.7499	20.66
313.15 K, x1 = 0.7994	20.4
313.15 K, x1 = 0.8388	20.24
313.15 K, x1 = 0.8976	20
313.15 K, x1 = 0.944	19.95
313.15 K, x1 = 1	19.91

Cc1cc(C)cc(C)c1 [1,3,5-trimethylbenzene] + COC(C)(C)OC
[1], x2 = 0
Details	surface tension liquid-gas [mN/m]
298.15 K	28.05
308.15 K	27.21
313.15 K	26.78

Cc1ccc(C)c(C)c1 [1,2,4-trimethylbenzene] + COC(C)(C)OC
[1], x2 = 0
Details	surface tension liquid-gas [mN/m]
298.15 K	29.3
308.15 K	28.24
313.15 K	27.71

CCOC(C)OCC [1,1-diethoxyethane]
[2]
Details	mass density [kg/m3]	surface tension liquid-gas [mN/m]
298.15 K	821.96	20.88
308.15 K	811.48	19.89
313.15 K	806.18	19.42
